Reference: patent US20070025939A1, “cosmetic compositions containing hydroquinone and various sunscreen agents” (L'Oreal S.A., priority 2005, published 2007)

Tests used:
Format in all cases: physicochemical
[1] = Discoloration of hydroquinone solutions with stabilizer in various solvents after storage; conditions: hydroquinone solutions in various solvents (ethanol absolute, 40-B, 40-2, 3A), glass vials, four weeks at 45° C., FIGS. 2A-D
Method: FIGS. 2A-D are photographs of containers of various compositions, each comprising 0.1% benzophenone-4 in 100 ml of various solvents, after storage for four weeks at 45° C. In another set of experiments, solutions containing […] in various solvents (as shown below) were prepared, and then stored in glass vials for four weeks at 45° C.

[2] = Discoloration of compositions associated with oxidation of hydroquinone (general statement); conditions: compositions containing hydroquinone
[3] = Discoloration of 1% hydroquinone solutions in SDA 40-2 ethanol with 0.1% stabilizer after storage; conditions: hydroquinone 1% w/w in 200-proof ethanol SDA grade 40-2, 0.1% w/w stabilizer, glass vials, 4 weeks at 45° C., FIG. 1
Method: FIG. 1 is a photograph of containers of various compositions, each comprising 1% hydroquinone, 0.1% of various stabilizers, in a vehicle of SDA grade 40-2 ethanol. Solutions of hydroquinone (1% w/w), in 200-proof ethanol (SDA grade 40-2, which includes brucine sulfate as a denaturant) with 0.1% w/w of various compounds, namely BHT, benzophenone-3, ascorbic acid, Tinogard HS, Tinogard TT, Tinogard Q, benzophenone-4, Tinogard TT DD and ascorbyl glucoside were prepared, and then stored in glass vials for 4 weeks at 45° C. The results of the experiments are illustrated in FIG. 1.

Row | discoloration of the solutions [1] | discoloration of compositions associated with oxidation of hydroquinone [2] | discoloration of the solution [3] | Compound
1 | substantially no discoloration | inhibit or reduce discoloration |  | CC1(C)C2CCC1(CS(=O)(=O)O)C(=O)/C2=C/c1ccc(/C=C2/C(=O)C3(CS(=O)(=O)O)CCC2C3(C)C)cc1 [Mexoryl SX, tetraphthalylidene dicamphor sulfonic acid]
2 | substantially no discoloration | inhibit or reduce discoloration | substantially no discoloration | COc1cc(O)c(C(=O)c2ccccc2)cc1S(=O)(=O)O [benzophenone-4, 5-Benzoyl-4-Hydroxy-2-Methoxybenzene Sulfonic Acid]
